{
  "source": "patent US12239643B2",
  "about": "“Therapeutic agent for inflammatory diseases, autoimmune diseases, fibrotic diseases, and cancer diseases” (MEIJI SEIKA PHARMA CO., LTD., priority 2018, dated 2025)",
  "test_system": "substance P-induced pruritus behavior, ICR mice",
  "test": "Mouse pruritus model",
  "assay_type": "in vivo",
  "conditions": "oral, substance P intradermally 2 hours after administration",
  "protocol": "Evaluation was carried out using male ICR mice (5 to 7 weeks of age). A micro magnet was embedded under the skin of both hind limbs of the mice in advance, and the hair on the back of the mouse neck was shaved. On the day of the test, the test compound was dissolved or suspended in 0.5% w/v methylcellulose (0.5% MC) and orally administered. Two hours after administration of the test compound, 50 μL of 300 nM substance P dissolved in saline was intradermally administered to the back of the mouse neck. The blank was a non-pruritus-induced group orally administered with 0.5% MC instead of the test compound and intradermally administered with saline instead of substance P, and the pruritus induction control was a group orally administered with 0.5% MC instead of the test compound. The pruritus measurement system for small animals, MicroAct II, automatically measured pruritus behavior for 30 minutes immediately after intradermal administration.",
  "data": [
    {"smiles": "CC(C)(O)C(F)(F)Oc1ccc(-c2nccs2)c2oc(N3CC4CC(C3)N4)nc12", "note": "[Example 248, 1-((2-(3,6-Diazabicyclo[3.1.1]heptan-3-yl)-7-(thiazol-2-yl)benzo[d]oxazol-4-yl)oxy)-1,1-difluoro-2-methylpropan-2-ol]", "values": [
      {"measurement": "scratching behavior (pruritus behavior for 30 minutes)", "result": "suppressed mouse scratching behavior at a lower concentration than apremilast"}
    ]}
  ]
}
